This passage reports IC50 and Km results from article PMC9203748, “Metabolism and antioxidant activity of SlGSTD1 in Spodoptera litura as a detoxification enzyme to pyrethroids” (Scientific Reports, 2022).

Usually IC50 stands for the concentration needed to halve the response being measured. Broadly, the Km is the substrate concentration at which the rate is half of its maximum.

The target of test [1] is T1, SlGSTD1 (Spodoptera litura, UniProt A0A9J7IUS4).
T1 construct: gene LOC111355915
T1 sequence (A0A9J7IUS4 1-221): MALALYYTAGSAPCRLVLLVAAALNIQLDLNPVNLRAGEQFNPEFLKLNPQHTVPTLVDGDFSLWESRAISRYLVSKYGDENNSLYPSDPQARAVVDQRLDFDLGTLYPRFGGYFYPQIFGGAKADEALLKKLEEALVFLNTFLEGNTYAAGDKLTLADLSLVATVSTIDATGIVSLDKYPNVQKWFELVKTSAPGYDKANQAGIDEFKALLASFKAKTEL
In words: inhibition of GSH-CDNB conjugation, A340. Format: biochemical.

The target of test [2] is T1, SlGSTD1. In words: GSH conjugation, A340, Michaelis-Menten fit. Format: biochemical. The note with it: GSH 30 μL of 100 μmol mL^−1 in about 1.1 mL; PBS 0.1 mol L^−1 pH 7.0.

Read-outs that look alike come from different tables or passages of the source.

Compound `CCOP(=S)(OCC)Oc1nc(Cl)c(Cl)cc1Cl` [chlorpyrifos] had an IC50 in test [1] of 170 ± 15.2 µM.
Consider `O=[N+]([O-])c1ccc(Cl)c([N+](=O)[O-])c1` [CDNB], for which the Km in test [2] was found to be 1680 ± 110 µM.
Take `CC1(C)C(/C=C(\Cl)C(F)(F)F)C1C(=O)OC(C#N)c1cccc(Oc2ccccc2)c1` (centres unmarked) [cyhalothrin]: the IC50 in test [1] was found to be 124 ± 10.3 µM.
In test [1], `CC(C)C(C(=O)OC(C#N)c1cccc(Oc2ccccc2)c1)c1ccc(Cl)cc1` (centres unmarked) [fenvalerate] had an IC50 of 21.6 ± 3.2 µM.
In the case of `CCOC(=O)/C=C\C(=O)OCC` [DEM, reference compound], in test [1] (read-out: IC50), the IC50 was 2.1 ± 0.3 µM.
